From patent US20250108036A1, “COMPOSITIONS FOR REMOVING SENESCENT CELLS AND USES THEREOF” (LIFECEUTIX CO., LTD., priority 2021, published 2025)

Legend:
[1] = tested on: umbilical cord-derived mesenchymal stem cells; assay: death of senescent stem cells by LX-112; format: cell-based, human; conditions: LX-112 10 μM
Procedure: In addition to somatic cells, the death of senescent cells by LX-112 was confirmed to be about 50% in stem cells (umbilical cord-derived mesenchymal stem cells, purchased from ATCC) at a concentration of 10 μM. From this, it was confirmed that LX-112 can effectively remove senescent cells by inducing their death.

[2] = tested on: aging-related inflammation and fibrosis secretory factors (SASP); assay: ProcartaPlex immunoassay of SASP factors in culture medium of senescent foreskin cells (Example 5); format: cell-based, human; conditions: LX-112 3 μM; senescent untreated = 100%
Procedure: In the same manner as Example 3, natural aging of human foreskin cells was induced and treated with LX-112 at a concentration of 3 μM. Then the expression levels of aging-related inflammation and fibrosis secretory factors (SASP), IL1α, IL1β, IL6, IL10, MCP1, PAI1 VCAM1, MMP1, MMP2, MMP3, MMP12, and TGFβ, were measured using an immunoassay (ProcartaPlex Immunoassay, purchased from Thermo Fisher Scientific) with the obtained culture medium. […] Table 17 calculates the amount of each factor after inducing aging to 100% and compares it with the amount of each factor after treatment with LX-112.

[3] = frailty tests (open field, wire hanging, grip strength, muscle mass) in naturally aged mice (Example 7-7); format: in vivo, C57BL6J mice
Procedure: After 22-month-old female C57BL6J mice (purchased from KRIBB Laboratory Animal Resource Center) were adapted to the experimental environment for one week, the aged mice were randomized into an experimental group and a control group. 8-week-old mice that were not aged were used as controls. LX-112 was mixed with 0.5% CMC-Na solution (purchased from Sigma) and administered orally at a concentration of 70 mg/kg daily for 21 days. The control group was administered only the solution in the same volume. After drug administration was completed, the method described in each Example below was performed.
To analyze aging-related senescence in mice, activity evaluation (open field test), endurance evaluation (wire hanging test), and muscle strength and grip strength test (grip strength test) were performed. Specifically, in the open field test, the mouse was placed in a white square box and the trajectory it moved for a certain period of time was measured. The measurement results were compared by analyzing the ratio of time spent in the central area to the total time. In the wire hanging test, the time the mouse could endure hanging on a wire was measured. In the muscle strength and grip test (grip strength test), the mouse was made to hold the grip strength measuring device (purchased from Jeongdo B&P) with its front paws by holding its tail, then pulled slightly until it missed, and the force applied to the measuring device just before missing was measured. […] Table 33 calculates the amount of each evaluation after induced aging as 100% and compares it with the amount of each evaluation after treatment with LX-112.

[4] = tested on: urea, creatinine, Agtr1a mRNA; assay: kidney damage markers in doxorubicin-aged mice (Example 8-9); format: in vivo, C57BL6J mice; conditions: LX-112 70 mg/kg oral daily 21 days, DOX without LX = 100%
Procedure: (§1) After adapting 8-week-old male C57BL6J mice (purchased from KRIBB Laboratory Animal Resource Center) to the experimental environment for 1 week, doxorubicin, an anticancer drug, was administered intraperitoneally at a concentration of 10 mg/kg, and mice that were induced to age for more than 10 days were assigned to an experimental group and a control group. LX-112 was mixed with 0.5% CMC-Na solution (purchased from Sigma) and administered orally at a concentration of 70 mg/kg daily for 21 days. The control group was administered only the solution in the same volume. After drug administration was completed, the method described in each Example below was performed.
The amounts of urea and creatinine, markers of kidney damage, in serum collected from mice were measured using spectrophotometry in the same manner as in Example 7-8. […] The amount of each factor after aging was induced by treatment with the anticancer drug was calculated as 100% and compared it with the amount of each factor after treatment with LX-112.

[5] = tested on: AST, ALT; assay: serum AST and ALT in doxorubicin-aged mice (Example 8-8); format: in vivo, C57BL6J mice; conditions: doxorubicin-aged mice, LX-112 70 mg/kg oral daily 21 days, DOX without LX = 100%
Procedure: as §1
In the same manner as in Example 7-5, the amounts of AST (aspartate aminotransferase) and ALT (alanine transaminase) released into the blood during liver damage were measured by spectrophotometry in the serum collected from mice using a kit (purchased from Sigma) according to the method described in the manual. […] Table 50 calculates the amount of each factor after aging was induced by treatment with the anticancer drug as 100% and compared it with the amount of each factor after treatment with LX-112.

[6] = Oil Red O staining of liver of obesity-aged mice (Example 9-5); format: in vivo, C57BL6J mice; conditions: stained area, LX-112 70 mg/kg oral daily 21 days, DIO without LX = 100%
Procedure: 15-week-old male C57BL6J mice (purchased from Jackson Laboratories), whose obesity was induced by a high-fat diet, were adapted to the experimental environment for one week, and then the mice were randomized into an experimental group and a control group. LX-112 was mixed with 0.5% CMC-Na solution (purchased from Sigma) and administered orally at a concentration of 70 mg/kg daily for 21 days. The control group was administered only the solution in the same volume. After drug administration was completed, the method described in each Example below was performed. Mice were sacrificed and the weight of adipose tissue in each area was measured.
Table 60 calculates the stained area of Oil Red O after aging induced by obesity as 100% and compares it with the stained area of Oil Red O after treatment with LX-112.

[7] = tested on: HMGN1; assay: HMGN1 ELISA in culture medium of A549 cancer cells (Example 12, Table 66); format: cell-based, human; conditions: Homo sapiens, A549, doxorubicin-induced senescent A549 cells, test compound 30 μM, ELISA, DMSO = 100; read-out: HMGN1 (amount of HMGN1 secreted in the cell culture)
[8] = tested on: normally proliferating cancer (A549) cells; assay: survival of normally proliferating A549 cancer cells treated with medium supernatant of compound-killed cancer cells (Example 14, Table 70); format: cell-based, human
Procedure: In the same way as Examples 12 and 13, senescence of cancer (A549) cells was induced by treatment with doxorubicin or the control group (DMSO), and the cells were cultured. […] In the same manner as in Example 13, the medium supernatants comprising secreted fluid from normally proliferating and senescent cancer cells was obtained. Normally proliferating and senescent-induced cancer cells were treated with the medium supernatants.

[9] = LX-112 70 mg/kg oral daily 21 days, aged untreated = 100%

O=c1c2ccccc2[se]n1CCn1[se]c2ccccc2c1=O [LX-112, 1,2-[bis(1,2-benzisoselenazolone-3(2H)-ketone)]ethane]
death of senescent cells [1]: about 50% | Protein (%) IL1α [2]: 57 (±5) % | Protein (%) IL1β [2]: 46 (±6) % | Protein (%) IL6 [2]: 41 (±4) % | Protein (%) IL10 [2]: 57 (±7) % | Protein (%) MCP1 [2]: 38 (±8) % | Protein (%) MMP1 [2]: 43 (±3) % | Protein (%) MMP2 [2]: 39 (±9) % | Protein (%) MMP3 [2]: 38 (±8) % | Protein (%) MMP12 [2]: 41 (±6) % | Protein (%) PAI1 [2]: 41 (±4) % | Protein (%) TGFβ [2]: 49 (±9) % | Protein (%) VCAM1 [2]: 45 (±5) % | weight of overall fat tissue ([3]; LX-112): increased | Grip Sterenght Test Strength (%) [3, 9]: 132 (±11) % | Open Field Test Time in Center (%) [3, 9]: 121 (±9) % | Wire Hanging Test Time (%) [3, 9]: 119 (±10) % | Muscle Mass (g) ([3]; quadriceps and gastrocnemius, LX-112 70 mg/kg oral daily 21 days): 0.7 (±0.1) g | Agtr1a mRNA (%) [4]: 75 (±9) % | Creatinine (%) ([4]; serum): 89 (±4) % | Urea (%) ([4]; serum): 91.2 (±1.2) % | ALT (%) [5]: 72.2 (±14.1) % | AST (%) [5]: 78 (±17.3) % | Oil Red O (%) [6]: 74 (±7.3) %

COC(=O)c1ccc([C@H]2c3[nH]c4ccccc4c3C[C@H](C(=O)OC)N2C(=O)CCl)cc1 [LX-405]
activity at 30 µM [7]: 310% | Survival (%) ([8]; supernatant from No Cells): 101.4 (±1.3) % | Survival (%) ([8]; supernatant from death-induced proliferating cells (LX-405 30 μM)): 98.6 (±4.8) % | Survival (%) ([8]; supernatant from death-induced senescent cells (LX-405 30 μM)): 105.2 (±4.9) %
